In PubChem BioAssay (NCI):
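Tested at 5 concentrations; 48 h exposure; 96-well plates; endpoints linearly interpolated, else capped at highest concentration. TGI denotes the concentration required for complete inhibition of growth.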

Legend:
Assay in all cases: DTP human tumour cell line panel, 48 h
DLD-1 colon = test system: DLD-1 colon
HCC-2998 colon = test system: HCC-2998 colon
HCT-116 colon = test system: HCT-116 colon
HOP-62 NSCLC = test system: HOP-62 NSCLC
HT29 colon = test system: HT29 colon
KM12 colon = test system: KM12 colon
MALME-3M melanoma = test system: MALME-3M melanoma
NCI-H23 lung = test system: NCI-H23 lung
NCI-H522 lung = test system: NCI-H522 lung
RPMI-8226 leukemia = test system: RPMI-8226 leukemia
SK-MEL-2 melanoma = test system: SK-MEL-2 melanoma
SNB-19 CNS = test system: SNB-19 CNS
TK-10 renal = test system: TK-10 renal
CAKI-1 renal = test system: CAKI-1 renal
HOP-92 NSCLC = test system: HOP-92 NSCLC
SK-OV-3 ovarian = test system: SK-OV-3 ovarian
U251 CNS = test system: U251 CNS
MDA-MB-231 breast = test system: MDA-MB-231 breast
MDA-N = test system: MDA-N
NCI/ADR-RES ovarian = test system: NCI/ADR-RES ovarian

C/C=C1\C=C(OC)CN(CCc2c[nH]c3ccccc23)C1
TGI (DLD-1 colon): > 100 µM | TGI (HCC-2998 colon): 33.1 µM | TGI (HCT-116 colon): > 100 µM | TGI (HOP-62 NSCLC): > 100 µM | TGI (HT29 colon): > 100 µM | TGI (KM12 colon): > 100 µM | TGI (MALME-3M melanoma): 56.8 µM | TGI (NCI-H23 lung): > 100 µM | TGI (NCI-H522 lung): > 100 µM | TGI (RPMI-8226 leukemia): > 100 µM | TGI (SK-MEL-2 melanoma): > 100 µM | TGI (SNB-19 CNS): > 100 µM | TGI (TK-10 renal): > 100 µM

Cc1nc(C(N)=S)sc1C(=O)CC(=O)C(=O)Nc1ccccc1[N+](=O)[O-]
TGI (CAKI-1 renal): > 100 µM | TGI (DLD-1 colon): > 100 µM | TGI (HCC-2998 colon): > 100 µM | TGI (HCT-116 colon): > 100 µM | TGI (HOP-62 NSCLC): > 100 µM | TGI (HOP-92 NSCLC): > 100 µM | TGI (HT29 colon): > 100 µM | TGI (KM12 colon): > 100 µM | TGI (MALME-3M melanoma): > 100 µM | TGI (NCI-H23 lung): > 100 µM | TGI (NCI-H522 lung): > 100 µM | TGI (RPMI-8226 leukemia): > 100 µM | TGI (SK-MEL-2 melanoma): > 100 µM | TGI (SK-OV-3 ovarian): > 100 µM | TGI (SNB-19 CNS): > 100 µM | TGI (TK-10 renal): > 100 µM | TGI (U251 CNS): > 100 µM

CCCCCCCCCCCCCCCCCCN(C)C(COC)COP(=O)([O-])OCC[N+](C)(C)C (stereo not drawn)
TGI (CAKI-1 renal): 15.7 µM | TGI (DLD-1 colon): 13.8 µM | TGI (HCC-2998 colon): 3.46 µM | TGI (HCT-116 colon): 17 µM | TGI (HOP-62 NSCLC): 12.1 µM | TGI (HOP-92 NSCLC): 5.17 µM | TGI (HT29 colon): 9.44 µM | TGI (KM12 colon): 3.2 µM | TGI (MALME-3M melanoma): 29.5 µM | TGI (MDA-MB-231 breast): 19.6 µM | TGI (MDA-N): 31.1 µM | TGI (NCI-H23 lung): 23.9 µM | TGI (NCI-H522 lung): 10.7 µM | TGI (NCI/ADR-RES ovarian): > 58.3 µM | TGI (RPMI-8226 leukemia): 5.85 µM | TGI (SK-MEL-2 melanoma): 35.6 µM | TGI (SK-OV-3 ovarian): 25.8 µM | TGI (SNB-19 CNS): 14.1 µM | TGI (TK-10 renal): 4.43 µM | TGI (U251 CNS): 4.2 µM

Cc1ccccc1NC(=O)c1c(C)oc2c1C(=O)c1ccccc1C2=O
TGI (CAKI-1 renal): > 100 µM | TGI (DLD-1 colon): > 68.6 µM | TGI (HCC-2998 colon): > 100 µM | TGI (HCT-116 colon): > 100 µM | TGI (HOP-62 NSCLC): > 100 µM | TGI (HOP-92 NSCLC): 65.2 µM | TGI (HT29 colon): > 100 µM | TGI (KM12 colon): > 100 µM | TGI (MALME-3M melanoma): 27.3 µM | TGI (NCI-H23 lung): 93.5 µM | TGI (NCI-H522 lung): 35.8 µM | TGI (RPMI-8226 leukemia): 60.9 µM | TGI (SK-MEL-2 melanoma): > 72.3 µM | TGI (SK-OV-3 ovarian): > 100 µM | TGI (SNB-19 CNS): > 100 µM | TGI (TK-10 renal): > 100 µM | TGI (U251 CNS): > 20.2 µM

CC(=O)NC1=C(NC(C)(C)C)C(=O)c2ccccc2C1=O
TGI (CAKI-1 renal): 30 µM | TGI (DLD-1 colon): 34.3 µM | TGI (HCC-2998 colon): > 100 µM | TGI (HCT-116 colon): 64.2 µM | TGI (HOP-62 NSCLC): > 100 µM | TGI (HOP-92 NSCLC): 34.6 µM | TGI (HT29 colon): 49.7 µM | TGI (KM12 colon): 92.9 µM | TGI (MALME-3M melanoma): 33.9 µM | TGI (NCI-H23 lung): 35.2 µM | TGI (RPMI-8226 leukemia): 37.1 µM | TGI (SK-MEL-2 melanoma): 42.9 µM | TGI (SK-OV-3 ovarian): > 100 µM | TGI (SNB-19 CNS): > 100 µM | TGI (TK-10 renal): 33.5 µM | TGI (U251 CNS): > 100 µM
